Test results from PMC10531319, “Hemostatically Active Proteinase Produced by Aspergillus ochraceus: Key Specific Properties and Effect on Target Proteins” (International Journal of Molecular Sciences, 2023).
Non-standard residues stand in square brackets, D forms with d. Residues, ends and D or L forms follow the SMILES beside them. *: point of attachment. pNA = O=[N+]([O-])c1ccc(N*)cc1

Tested on: T1, A. ochraceus proteinase
T1 construct: native extracellular enzyme from culture liquid; about 35 kDa, non-glycosylated
Test: chromogenic assay, pNA release at […] nm, Lineweaver-Burk and Eadie-Hofstee plots
Type: biochemical, Aspergillus ochraceus
Details: 0.05 M Tris-HCl pH 8.2, 37 °C; substrate 0.25-2.0 mg/mL

CC(C)C[C@@H](N)C(=O)N[C@@H](CCCCN)C(=O)Nc1ccc([N+](=O)[O-])cc1 [H-D-Leu-Lys-pNA] (H-[dL]-Lys-pNA)
Km: 3.48 mM
